Experimental findings from patent EP3532040B1, “A PERSONAL CARE COMPOSITION” (Unilever Global IP Limited, priority 2016, dated 2018) are described below.

Series [1] is described as follows: Visual assessment of color of the compound compared with curcumin. The class given is physicochemical. Conditions: color of the compound itself. The source says: It is desirable that the color of the novel compound of the present invention lies within the colorless to light yellow range for optimum visual appeal and usage in topical and/or skin care compositions. Visual assessment of color from a solid or solution sample of novel compounds in comparison to a solid or solution sample of curcumin provides a means to determine relative reduction of color and appeal potential. In addition, UV-Vis spectra of solution samples of novel compounds in comparison to a solution sample of curcumin provides a means to measure color experimentally and allows a more direct measurement of color. Thus, using these two simple measurements it is possible to assess the relative reduction in color of novel inventive compounds relative to curcumin and allows prioritization of compounds for further development.

Series [2] can be described thus: Color assessment of solutions (L*a*b* color space, Labscan XE, and visual appearance). It is filed as physicochemical. Conditions: 200 µM in ethyl acetate; for b* / L* / a*: 21 °C; for b*: vehicle 1.78; for L*: vehicle 68.79; for a*: vehicle -0.49. The method, then:
Solutions of compound with formula 1 and curcumin were prepared in ethyl acetate (200 µM) and the L*a*b* color space measured at room temperature (21 °C) using a Labscan XE instrument (Hunter Associates Labs Inc., Reston, VA) and processed with Universal Software (version 4.10). […]

The subject of series [3] is Primary human gingival fibroblasts. Description: Anti-inflammation efficacy in Human Gingival Fibroblasts assay (P. gingivalis-stimulated IL-6, IL-8, MCP-1 release, ELISA). It is filed as cell-based. The note with it: 20 µM active preincubated 2 h, then heat-inactivated P. gingivalis 4 h. The method, then:
Primary human gingival fibroblasts (HGFs, Cat No. 2620, ScienCell™) were cultured in complete fibroblast medium which included 500 mL of basal medium, 10 mL of fetal bovine serum (FBS), 5 mL of fibroblast growth supplement, and 5 mL of penicillin/streptomycin solution (Cat No. 2301, ScienCell™). HGFs were seeded in 24 well-plates at the density of 2 × 10^4 cells / well and cultured for 72 h. Cells were preincubated with active for 2 h. After removal of the active medium, the cells were washed with PBS and further treated with heat-inactivated P. gingivalis (Cat. 33277, ATCC). After 4 h, the supernatants were collected and measured for IL-6, IL-8 and monocyte chemoattractant protein (MCP) -1 as pro-inflammatory bio-markers using ELISA.
On the technique in general: ELISA stands for enzyme-linked immunosorbent assay.

A short description of series [4]: Solubility in solvents compared with curcumin. The class given is physicochemical.
Series [5] concerns THP1-XBlue cells. Description: Anti-inflammation efficacy in THP-1 in vitro assay (LPS-stimulated IL-6 release, ELISA). It is filed as cell-based. The note with it: 24 h, PMA-differentiated cells, LPS alone 10508. The method, then: THP1-XBlue™ (Cat No: thpx-sp, InvivoGen) cells were cultured as suspense in RPMI 1640 medium supplemented with 10% FBS, penicillin (10 U/mL) - streptomycin (10 µg/ML). Cells were differentiated in 24-well plates at the density of 5 × 10^5 cells / well with 100 nM PMA for 72 h. Cells were then co-treated with pure E. coli lipopolysaccharides (LPS) and with active. After 24 h, the supernatants were collected and measured for interleukin (IL)-6 as pro-inflammatory bio-marker using enzyme-linked immunosorbent assay (ELISA).

In the case of `COc1cc(/C=C/C(=O)CC(=O)/C=C/c2ccc(O)c(OC)c2)ccc1O` [Curcumin, reference compound], in series [1], the color entry is recorded as “orange”. For the same compound, in series [2], the “Appearance (visual appearance of solution)” value is “yellow”, the “b*” value is 63.88, the “L*” value came out at 68.53 and the “a*” value was -18.66.

For the compound `COc1cc(C2CC2C(=O)C(C)(C)C(=O)C2CC2c2ccc(O)c(OC)c2)ccc1O` (stereo not shown) [compound of formula 1, 1,3-bis(2-(4-hydroxy-3-methoxyphenyl)cyclopropyl)-2,2-dimethylpropane-1,3-dione], in series [3] (P. gingivalis alone 388), the “Concentration MCP-1” value stood at 232 pg/mL. Besides, the “Concentration IL-6” value in series [3] (P. gingivalis alone 595) worked out at 286 pg/mL. Moreover, in series [3] (P. gingivalis alone 17100), the “Concentration IL-8” value came to 8321 pg/mL. Besides, the color entry in series [1] is listed as “light yellow”. In series [2], the “Appearance (visual appearance of solution)” value is reported as “colorless”, the “b*” value is 2.49, the “L*” value stood at 68.62 and the “a*” value was -0.68. Further, the “solubility in a broad spectrum of solvents” value in series [4] was “significantly improved solubility”. Further, the “Concentration of IL-6” value in series [5] (10 µM active co-treated with E. coli LPS) worked out at 5591 pg/mL. Also, in series [5] (20 µM active co-treated with E. coli LPS), the “Concentration of IL-6” value was 2996 pg/mL.
